Assay results: patent US20120142771A1, “BIPHENYLACETAMIDE DERIVATIVE” (Dainippon Sumitomo Pharma Co., Ltd., priority 2008, published 2012)
Like-named read-outs stand apart in the source and are kept apart here.

What was measured:
Assay type in all cases: in vivo, mice
[1] = tested on: subcutaneously pentetrazol-injected model (scPTZ); assay: Subcutaneously pentetrazol-injected model (scPTZ) test; settings: pentetrazol 85 mg/kg s.c. after 1 hour; for scPTZ (positive number/tested number) / responders at 50 mg/kg / responders at 100 mg/kg: Slc: ddY male mice, 3 per group, observed 30 minutes for clonic convulsion; for anticonvulsant action in subcutaneously pentetrazol-injected model (scPTZ) test: mice, oral 50 or 100 mg/kg; for responders at 50 mg/kg / responders at 100 mg/kg: Mus musculus, po, 1 h, read-out: scPTZ (positive number/tested number) (converted)
In short: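 Pentetrazol (85 mg/kg, s.c.) was injected one hour after oral test compound at 50 or 100 mg/kg in groups of three male Slc:ddY mice weighing 20-30 g; vehicle controls got 0.5% tragacanth or 0.5% methylcellulose.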

[2] = tested on: maximum electroshock seizure (MES) model; assay: Maximum electroshock seizure (MES) model test; settings: for MES (positive number/tested number) / responders at 50 mg/kg / responders at 100 mg/kg: Slc: ddY male mice, 3 per group, electrical stimulation 1 hour after administration, inhibition of hind limb extension; for anticonvulsant action in maximum electroshock seizure (MES) model test: mice, oral 50 or 100 mg/kg, 1 hour after administration; for responders at 50 mg/kg / responders at 100 mg/kg: Mus musculus, po, 1 h, read-out: MES (positive number/tested number) (converted)
In short: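 Tonic hind-limb extension was elicited by corneal electroshock (60 Hz, 25 mA, 0.2 s) 1 h after oral dosing. Test compounds were given at 50 or 100 mg/kg to groups of 3 male Slc: ddY mice (20-30 g), vehicle controls receiving 0.5% tragacanth or 0.5% methylcellulose solution.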

[3] = tested on: 6 Hz psychomotor seizure model; assay: 6 Hz psychomotor seizure model; settings: mice; for 6 Hz (Positive number/tested number) / ED50: oral; for 6 Hz (Positive number/tested number): dose 100 mg/kg, 30 minutes or 1 hour after administration; for ED50: 6 Hz psychomotor seizure model, read-out: ED50; for efficacy in 6 Hz psychomotor seizure model: oral administration at a dose of 100 mg/kg
Procedure: Test 4: Test of 6 Hz Psychomotor Seizure Model
Similar to Tests 1 and 2, Test 4 evaluates the anticonvulsant action of medicaments. However, unlike Tests 1 and 2, the animal model used herein represents clinical phenotypes of seizures resistant to existing antiepileptic drugs. […] After 30 minutes or an hour of administration, their corneas were electrically stimulated (6 Hz, 32 mA, 3 seconds) to induce symptoms of myoclonus in their forelimbs, Straub tail, and immobility. […] To the control mice, 0.5% tragacanth solution, 0.5% methylcellulose solution, or olive oil was administered.

Structure (SMILES)	scPTZ (positive number/tested number) ([1]; 50 mg/kg oral)	scPTZ (positive number/tested number) ([1]; 100 mg/kg oral)	anticonvulsant action in subcutaneously pentetrazol-injected model (scPTZ) test [1]	MES (positive number/tested number) ([2]; 50 mg/kg oral)	MES (positive number/tested number) ([2]; 100 mg/kg oral)	anticonvulsant action in maximum electroshock seizure (MES) model test [2]	6 Hz (Positive number/tested number) [3]	responders at 50 mg/kg ([1]; 50 mg/kg oral) [%]	responders at 100 mg/kg ([1]; 100 mg/kg oral) [%]	responders at 50 mg/kg ([2]; 50 mg/kg oral) [%]	responders at 100 mg/kg ([2]; 100 mg/kg oral) [%]	ED50 ([3]; Mus musculus) [mg/kg]	efficacy in 6 Hz psychomotor seizure model [3]	ED50 [3] [mg/kg]
NC(=O)C(O)c1ccccc1-c1cccc(F)c1 (single isomer, unassigned) [Example 212, 2-(3′-Fluorobiphenyl-2-yl)-2-hydroxyacetamide]	2/3	2/3	anticonvulsant action was observed	3/3	3/3	anticonvulsant action was observed	1/5/100	–	–	–	–	–	–	–
NC(=O)C(O)c1ccccc1-c1ccccc1F (centres unmarked) [Example 60, 2-(2′-Fluorobiphenyl-2-yl)-2-hydroxyacetamide]	–	–	–	–	–	–	1/5/100	33.3	66.7	100	100	–	–	–
NC(=O)Cc1ccccc1-c1cc(OC(F)(F)F)ccc1F [Example 93, 2-[2′-fluoro-5′-(trifluoromethoxy)biphenyl-2-yl]acetamide]	–	–	–	–	–	–	2/5/100	33.3	100	100	100	–	–	–
NC(=O)Cc1ccccc1-c1cccc(F)c1Cl [Example 86, 2-(2′-chloro-3′-fluorobiphenyl-2-yl)acetamide]	–	–	–	–	–	–	2/5/100	33.3	66.7	100	66.7	–	–	–
NC(=O)Cc1ccccc1-c1cc(F)cc(Cl)c1 [Example 80, 2-(3′-chloro-5′-fluorobiphenyl-2-yl)acetamide]	–	–	anticonvulsant action was observed	–	–	anticonvulsant action was observed	4/5/100	66.7	100	100	100	–	–	–
NC(=O)C(O)c1ccccc1-c1cccc(F)c1 (single isomer, unassigned) [Example 211, 2-(3′-Fluorobiphenyl-2-yl)-2-hydroxyacetamide]	–	–	anticonvulsant action was observed	–	–	anticonvulsant action was observed	5/10/100	66.7	66.7	100	100	100	–	–
NC(=O)Cc1ccccc1-c1cc(Cl)ccc1C(F)(F)F [Example 91, 2-[5′-chloro-2′-(trifluoromethyl)biphenyl-2-yl]acetamide]	–	–	anticonvulsant action was observed	–	–	anticonvulsant action was observed	5/5/100	66.7	66.7	100	100	–	potent efficacy	–
NC(=O)C(F)c1ccccc1-c1ccccc1 (single isomer, unassigned) [Example 210, 2-(Biphenyl-2-yl)-2-fluoroacetamide]	3/3	3/3	anticonvulsant action was observed	2/3	3/3	anticonvulsant action was observed	4/5/100	–	–	–	–	–	–	–
NC(=O)C(O)c1cc(F)ccc1-c1cc(Cl)cc(Cl)c1 (centres unmarked) [Example 189, 2-(3′,5′-dichloro-4-fluorobiphenyl-2-yl)-2-hydroxyacetamide]	–	–	–	–	–	–	3/5/100	33.3	66.7	100	66.7	–	–	–
NC(=O)Cc1ccccc1-c1cc(F)ccc1Cl [Example 88, 2-(2′-chloro-5′-fluorobiphenyl-2-yl)acetamide]	–	–	anticonvulsant action was observed	–	–	anticonvulsant action was observed	3/5/100	66.7	100	66.7	100	–	–	–
NC(=O)C(O)c1ccccc1-c1cc(Cl)cc(Cl)c1 (centres unmarked) [Example 183, 2-(3′,5′-dichlorobiphenyl-2-yl)-2-hydroxyacetamide]	–	–	anticonvulsant action was observed	–	–	anticonvulsant action was observed	4/5/100	66.7	66.7	100	100	–	–	–
NC(=O)Cc1ccccc1-c1ccc(Cl)cc1Cl [Example 78, 2-(2′,4′-dichlorobiphenyl-2-yl)acetamide]	–	–	–	–	–	–	3/5/100	0	66.7	100	100	–	–	–
NC(=O)[C@@H](O)c1ccccc1-c1ccccc1 [Example 208, 2-(biphenyl-2-yl)-2S-hydroxyacetamide]	1/3	2/3	–	2/3	3/3	–	7/10/100	–	–	–	–	–	–	90.6
NC(=O)C(O)c1ccccc1-c1ccccc1Cl (centres unmarked) [Example 190, 2-(2′-chlorobiphenyl-2-yl)-2-hydroxyacetamide]	–	–	anticonvulsant action was observed	–	–	anticonvulsant action was observed	5/5/100	66.7	66.7	66.7	100	–	potent efficacy	–
NC(=O)Cc1ccccc1-c1cc(Cl)cc(Cl)c1Cl [Example 64, 2-(2′,3′,5′-Trichlorobiphenyl-2-yl)acetamide]	–	–	–	–	–	–	3/5/100	0	100	100	100	–	–	–
NC(=O)[C@H](O)c1ccccc1-c1cc(Cl)cc(Cl)c1 (single isomer, unassigned) [Example 215, 2-(3′,5′-Dichlorobiphenyl-2-yl)-2R-hydroxyacetamide]	–	–	–	–	–	–	7/10/100	0	66.7	66.7	66.7	64.8	–	–
NC(=O)Cc1ccc(F)cc1-c1ccccc1 [Example 39, 2-(5-fluorobiphenyl-2-yl)acetamide]	–	–	–	–	–	–	1/5/100	33.3	66.7	100	100	–	–	–
NC(=O)Cc1ccc(F)cc1-c1ccccc1F [Example 41, 2-(2′,5-difluorobiphenyl-2-yl)acetamide]	–	–	anticonvulsant action was observed	–	–	anticonvulsant action was observed	4/5/100	66.7	66.7	100	100	–	–	–
